We go through 2 compounds from patent US20210369677A1, “SMALL MOLECULE ACTIVATORS OF POLYCYSTIN-2 (PKD2) AND USES THEREOF” (Northwestern University, priority 2020, published 2021).

Where two headings read alike, the source gives them in different places.

Usually Kd stands for the constant that tells how readily two partners part at equilibrium.

The target in test [1] is T1, human PKD2 channel proteins (WT or C331S) (Homo sapiens, UniProt Q13563).
T1 construct: purified the C331S variant of polycystin-2 (residues 53-792) protein in amphipols; made in house
In words: Thermal stability assay (FSEC) of purified PKD2 channel proteins. Particulars: 10 mM GSH. Here is the method:
Thermal stability assay. Approximately 9 μg of purified human PKD2 channel proteins (WT or C331S) in 30 μl buffer composed of 20 mM HEPES 150 mM NaCl, 2 mM CaCl2), 0.5 mM TCEP and 0.5 mM DDM (n-Dodecyl β-D-maltoside), at pH 7.4, were incubated at 4° C.-90° C. (4° C., room temperature, 30° C., 35.2° C., 39.3° C., 44.9° C., 49° C., 54° C., 60° C., 65.5° C., 69.4° C., 75° C., 79.3° C., 84° C., and 90° C.) for 10 minutes in a thermal cycler. To reduce the C331-C344 disulfide bond in the PKD2 channel, 10 mM GSH was added to all the buffers during purification and thermal stability assay. The treated channel samples were then diluted 10 times with the same buffer followed by centrifugation for 30 min at 40,000 rpm. 30 μl of each cleared channel samples were separated on an analytical size exclusion column (Superose™ 6 5/150 GL, GE Healthcare) at 0.3 ml/min flow rate. Proteins were detected by Tryptophan fluorescence. The FSEC-based thermostability experiments were performed in triplicates for each temperature point. The integrated area of the channel tetramer peak at different temperature points is normalized to that at 4° C. to generate the thermal stability plot.
We tested the thermal stability of PKD2 and the C331S variant in the presence or absence of NS1643. (See FIG. 33). We also performed Rosetta modeling. (See FIG. 35).

Test [2] addresses T2, human polycystin-2 CTD EF hand (I704-P797) (Homo sapiens, UniProt Q13563).
T2 construct: The C-terminal fragment of the human polycystin-2 (I704-P797) was cloned into the PET19b vector; 10xHis (N); made in house; host or cells: E. coli BL21 (DE3)
T2 sequence (Q13563 704-797): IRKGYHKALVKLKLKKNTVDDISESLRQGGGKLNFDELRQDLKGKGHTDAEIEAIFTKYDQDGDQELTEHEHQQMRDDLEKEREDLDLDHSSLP
The test is described as follows: Isothermal titration calorimetry of divalent ions into the CTD of polycystin-2. The format is binding. Conditions: 25° C; read-out: Ca2+ affinity (Kd) for WT human CTD EF hand. Here is the method:
CTD protein expression, purification, and isothermal titration calorimetry. The C-terminal fragment of the human polycystin-2 (I704-P797) was cloned into the PET19b vector and transformed into BL21 (DE3) competent cells (New England Biolabs) for bacterial expression. The translated peptide has a 10×His tag on its N-terminus. The alanine mutants of the individual calcium-coordinating residues were created and transformed as well. Cells were grown in 2XYT broth in a 37° C. shaking incubator until OD600 reaches ˜0.6, and were induced by 0.4 mM isopropyl 1-thio-β-D-galactopyranoside and grown for another 4 hours. Cells were harvested and resuspended in Buffer A (500 mM NaCl, 20 mM Tris/HCl, pH 7.4), 5% glycerol, 0.25 mM EDTA pH 8.0, 1 mM PMSF (RPI), 25 μg/ml of lysozyme and DNase I (GoldBio). The suspension was then lysed by sonication and clarified by centrifugation (30,000×g for 0.5 h). Filtered supernatant was loaded into a HisPur cobalt Superflow agarose column (ThermoScientific). The column was washed with 10 column volume (CV) of buffer A, 5 CV of buffer A+5 mM imidazole, and finally eluted with 3 CV of buffer A+100 mM imidazole. The eluate was desalted by dialysis in 150 mM NaCl, 20 mM Tris/HCl, 20 mM imidazole, pH 7.4. SDS-PAGE gel confirmed the expression, solubility, and purity of the peptide. All of our solutions were formulated with ultrapure water (Milli-Q® IQ 7005 water purification system), that has less than 0.29 ng/L calcium ions present. The binding affinity is recorded based on the heat difference between the sample cell and reference cell measured by MicroCal iTC200. […] The cells were insulated by an adiabatic jacket held at 25° C. The heat of dilution of Ca^2+ was not subtracted from data sets, as the signal was prohibitively small for several of the mutant channels. The exothermic energy of the bimolecular interaction between Ca^2+ and peptide during each injection was analyzed by integrating the change in heat to generate the binding isotherm. […]

The target in test [3] is T2, human polycystin-2 CTD EF hand (I704-P797). Particulars: Yang et al., 2015; read-out: Kd previously reported for this peptide; cited from earlier work.

T1 sequence (Q13563 53-792 C331S): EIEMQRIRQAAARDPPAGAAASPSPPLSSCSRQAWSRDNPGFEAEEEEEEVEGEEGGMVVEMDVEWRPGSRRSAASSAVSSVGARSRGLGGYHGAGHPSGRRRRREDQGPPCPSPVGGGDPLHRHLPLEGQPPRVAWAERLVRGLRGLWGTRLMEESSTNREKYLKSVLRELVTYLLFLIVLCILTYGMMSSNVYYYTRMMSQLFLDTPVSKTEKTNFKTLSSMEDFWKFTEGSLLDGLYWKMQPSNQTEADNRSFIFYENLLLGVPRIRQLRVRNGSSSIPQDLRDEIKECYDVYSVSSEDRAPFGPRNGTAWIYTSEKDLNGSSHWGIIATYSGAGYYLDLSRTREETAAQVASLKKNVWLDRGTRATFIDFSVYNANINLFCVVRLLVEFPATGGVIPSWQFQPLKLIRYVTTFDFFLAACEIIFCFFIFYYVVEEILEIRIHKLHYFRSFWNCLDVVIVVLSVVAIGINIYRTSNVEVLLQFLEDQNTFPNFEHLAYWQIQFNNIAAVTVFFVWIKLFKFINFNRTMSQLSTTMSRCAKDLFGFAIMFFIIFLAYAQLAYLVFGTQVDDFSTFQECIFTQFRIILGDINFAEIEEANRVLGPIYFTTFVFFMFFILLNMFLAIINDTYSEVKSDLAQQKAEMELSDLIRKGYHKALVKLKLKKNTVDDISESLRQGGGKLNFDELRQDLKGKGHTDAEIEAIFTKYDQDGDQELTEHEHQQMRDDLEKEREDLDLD

In the case of `N[C@@H](CCC(=O)N[C@@H](CS)C(=O)NCC(=O)O)C(=O)O` [GSH, reduced glutathione], the “Thermal denaturation of polycystin-2 channel protein under reducing conditions” value in test [1] is given as “denaturing at lower temperatures”.

On to `[Ca+2]` [Ca^2+, calcium], for which the values for the dissociation constant (Kd) in test [2] and in test [3] were 19 ± 5 µM and 22 µM, respectively.
